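Method: 48-hour compound exposure of cells in 96-well plates, five concentrations, linear interpolation of endpoints. Here, GI50 denotes the concentration required for 50% inhibition of growth. At the TGI there is no net growth.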
What was measured:
Assay in all cases: NCI tumour cell line growth inhibition, 48 h
HT29 colon = tested on: HT29 colon
OVCAR-4 ovarian = tested on: OVCAR-4 ovarian
SR leukemia = tested on: SR leukemia
NCI-H23 lung = tested on: NCI-H23 lung
A498 renal = tested on: A498 renal
MCF7 breast = tested on: MCF7 breast
MDA-MB-435 = tested on: MDA-MB-435
SNB-19 CNS = tested on: SNB-19 CNS
OVCAR-5 ovarian = tested on: OVCAR-5 ovarian
NCI-H226 lung = tested on: NCI-H226 lung
SF-539 CNS = tested on: SF-539 CNS
SNB-75 CNS = tested on: SNB-75 CNS
BT-549 breast = tested on: BT-549 breast
SF-295 CNS = tested on: SF-295 CNS
HCT-116 colon = tested on: HCT-116 colon
ACHN renal = tested on: ACHN renal
RPMI-8226 leukemia = tested on: RPMI-8226 leukemia
HS 578T breast = tested on: HS 578T breast
UO-31 renal = tested on: UO-31 renal
OVCAR-8 ovarian = tested on: OVCAR-8 ovarian
NCI/ADR-RES ovarian = tested on: NCI/ADR-RES ovarian
MALME-3M melanoma = tested on: MALME-3M melanoma
MOLT-4 leukemia = tested on: MOLT-4 leukemia
OVCAR-3 ovarian = tested on: OVCAR-3 ovarian
HL-60(TB) leukemia = tested on: HL-60(TB) leukemia
SK-MEL-28 melanoma = tested on: SK-MEL-28 melanoma
MDA-MB-231 breast = tested on: MDA-MB-231 breast
IGROV1 ovarian = tested on: IGROV1 ovarian
SK-MEL-5 melanoma = tested on: SK-MEL-5 melanoma
DU-145 prostate = tested on: DU-145 prostate
SK-MEL-2 melanoma = tested on: SK-MEL-2 melanoma
SF-268 CNS = tested on: SF-268 CNS
M14 melanoma = tested on: M14 melanoma
K-562 leukemia = tested on: K-562 leukemia
786-0 renal = tested on: 786-0 renal
LOX IMVI melanoma = tested on: LOX IMVI melanoma
SK-OV-3 ovarian = tested on: SK-OV-3 ovarian
U251 CNS = tested on: U251 CNS
HCT-15 colon = tested on: HCT-15 colon
TK-10 renal = tested on: TK-10 renal
CCRF-CEM leukemia = tested on: CCRF-CEM leukemia
T-47D breast = tested on: T-47D breast
UACC-257 melanoma = tested on: UACC-257 melanoma
SN12C renal = tested on: SN12C renal
NCI-H522 lung = tested on: NCI-H522 lung
CAKI-1 renal = tested on: CAKI-1 renal
EKVX NSCLC = tested on: EKVX NSCLC
HOP-62 NSCLC = tested on: HOP-62 NSCLC
UACC-62 melanoma = tested on: UACC-62 melanoma
A549 NSCLC = tested on: A549 NSCLC
PC-3 prostate = tested on: PC-3 prostate
COLO 205 colon = tested on: COLO 205 colon
KM12 colon = tested on: KM12 colon
NCI-H460 lung = tested on: NCI-H460 lung

O=C(N/N=C(\CN1CCN(c2cc3[nH]cc(C(=O)O)c(=O)c3cc2F)CC1)c1ccc(Cl)cc1)c1ccncc1
GI50 (HT29 colon): 37 µM
TGI (HT29 colon): > 100 µM
GI50 (OVCAR-4 ovarian): 39.8 µM
TGI (OVCAR-4 ovarian): > 100 µM
GI50 (SR leukemia): 18.2 µM
TGI (SR leukemia): 55.4 µM
GI50 (NCI-H23 lung): 30.8 µM
TGI (NCI-H23 lung): 81.2 µM
GI50 (A498 renal): 23.3 µM
TGI (A498 renal): > 100 µM
GI50 (MCF7 breast): 21 µM
TGI (MCF7 breast): 66.9 µM
GI50 (MDA-MB-435): 19.4 µM
TGI (MDA-MB-435): 49.4 µM
GI50 (SNB-19 CNS): 76.9 µM
TGI (SNB-19 CNS): > 100 µM
GI50 (OVCAR-5 ovarian): 50.9 µM
TGI (OVCAR-5 ovarian): > 100 µM
GI50 (NCI-H226 lung): 23.1 µM
TGI (NCI-H226 lung): 80.5 µM
GI50 (SF-539 CNS): 28.6 µM
TGI (SF-539 CNS): 87.4 µM
GI50 (SNB-75 CNS): 61.6 µM
TGI (SNB-75 CNS): > 100 µM
GI50 (BT-549 breast): 33.6 µM
TGI (BT-549 breast): > 100 µM
GI50 (SF-295 CNS): 21 µM
TGI (SF-295 CNS): 52.1 µM
GI50 (HCT-116 colon): 37.5 µM
TGI (HCT-116 colon): > 100 µM
GI50 (ACHN renal): 18.4 µM
TGI (ACHN renal): 42.6 µM
GI50 (RPMI-8226 leukemia): 19 µM
TGI (RPMI-8226 leukemia): 43 µM
GI50 (HS 578T breast): 29.1 µM
TGI (HS 578T breast): 99.2 µM
GI50 (UO-31 renal): 18.7 µM
TGI (UO-31 renal): 41.8 µM
GI50 (OVCAR-8 ovarian): 21.4 µM
TGI (OVCAR-8 ovarian): 47.4 µM
GI50 (NCI/ADR-RES ovarian): 28.4 µM
TGI (NCI/ADR-RES ovarian): 66.3 µM
GI50 (MALME-3M melanoma): 18.6 µM
TGI (MALME-3M melanoma): 58 µM
GI50 (MOLT-4 leukemia): 22.8 µM
TGI (MOLT-4 leukemia): 52.6 µM
GI50 (OVCAR-3 ovarian): 2.89 µM
TGI (OVCAR-3 ovarian): 19.9 µM
GI50 (HL-60(TB) leukemia): 19.4 µM
TGI (HL-60(TB) leukemia): 43.3 µM
GI50 (SK-MEL-28 melanoma): > 100 µM
TGI (SK-MEL-28 melanoma): > 100 µM
GI50 (MDA-MB-231 breast): 20.2 µM
TGI (MDA-MB-231 breast): 46.1 µM
GI50 (IGROV1 ovarian): 3.32 µM
TGI (IGROV1 ovarian): 26.9 µM
GI50 (SK-MEL-5 melanoma): 16.4 µM
TGI (SK-MEL-5 melanoma): 31.6 µM
GI50 (DU-145 prostate): 36 µM
TGI (DU-145 prostate): > 100 µM
GI50 (SK-MEL-2 melanoma): 30.7 µM
TGI (SK-MEL-2 melanoma): 74.4 µM
GI50 (SF-268 CNS): 25.8 µM
TGI (SF-268 CNS): 89.9 µM
GI50 (M14 melanoma): 32.3 µM
TGI (M14 melanoma): 79.5 µM
GI50 (K-562 leukemia): 26.9 µM
TGI (K-562 leukemia): > 100 µM
GI50 (786-0 renal): 39.9 µM
TGI (786-0 renal): > 100 µM
GI50 (LOX IMVI melanoma): 16.8 µM
TGI (LOX IMVI melanoma): 33.4 µM
GI50 (SK-OV-3 ovarian): 78.6 µM
TGI (SK-OV-3 ovarian): > 100 µM
GI50 (U251 CNS): 33.5 µM
TGI (U251 CNS): > 100 µM
GI50 (HCT-15 colon): 21.1 µM
TGI (HCT-15 colon): 42.8 µM
GI50 (TK-10 renal): 43 µM
TGI (TK-10 renal): > 100 µM
GI50 (CCRF-CEM leukemia): 22.5 µM
TGI (CCRF-CEM leukemia): > 100 µM
GI50 (T-47D breast): 42.2 µM
TGI (T-47D breast): > 100 µM
GI50 (UACC-257 melanoma): 23.2 µM
TGI (UACC-257 melanoma): 49 µM
GI50 (SN12C renal): 24.8 µM
TGI (SN12C renal): 61.8 µM
GI50 (NCI-H522 lung): 22.7 µM
TGI (NCI-H522 lung): 52.9 µM
GI50 (CAKI-1 renal): 1.96 µM
TGI (CAKI-1 renal): 5.61 µM
GI50 (EKVX NSCLC): 38 µM
TGI (EKVX NSCLC): > 100 µM
GI50 (HOP-62 NSCLC): 39.4 µM
TGI (HOP-62 NSCLC): > 100 µM
GI50 (UACC-62 melanoma): 25.6 µM
TGI (UACC-62 melanoma): 61.9 µM
GI50 (A549 NSCLC): 22.3 µM
TGI (A549 NSCLC): 65.5 µM
GI50 (PC-3 prostate): 22.7 µM
TGI (PC-3 prostate): 52.4 µM
GI50 (COLO 205 colon): 78 µM
TGI (COLO 205 colon): > 100 µM
GI50 (KM12 colon): 30.6 µM
TGI (KM12 colon): > 100 µM
GI50 (NCI-H460 lung): 22.7 µM
TGI (NCI-H460 lung): 67.6 µM

From PubChem BioAssay (NCI)
